{
  "source": "patent US20090202596A1",
  "about": "“PHARMACEUTICAL COMPOSITIONS WITH BIOLOGICAL BARRIERS PERMEATION ENHANCING PROPERTIES” (FARMATRON LIMITED, priority 2006, published 2009)",
  "assay": "In vitro solubilization kinetics in buffer solution",
  "type": "physicochemical",
  "conditions": "buffer pH 7.4, 37° C., HPLC",
  "description": "Solubilization Kinetics of the Double Microemulsions of the Invention\nThe “in vitro” solubilization kinetics was determined in buffer solution (pH 7.4, 37° C.); sample of the double microemulsion under testing is dispersed in tubes filled with 50 ml of buffer solution and placed over a thermostated shaking plate; at predetermined time intervals samples of the solution were filtered and then ultra-centrifuged; drug concentration was determined by HPLC, data are reported in Table 2.",
  "data": [
    {"smiles": "CCC(C)n1ncn(-c2ccc(N3CCN(c4ccc(OCC5COC(Cn6cncn6)(c6ccc(Cl)cc6Cl)O5)cc4)CC3)cc2)c1=O", "note": "(centres unmarked) [Itraconazole pure dispersion, Itraconazole]", "values": [
      {"measurement": "Drug concentration", "setting": "0.5 hr", "result": 50, "unit": "ng/mL"},
      {"measurement": "Drug concentration", "setting": "1 hr", "result": 100, "unit": "ng/mL"},
      {"measurement": "Drug concentration", "setting": "3 hr", "result": 300, "unit": "ng/mL"},
      {"measurement": "Drug concentration", "setting": "8 hr", "result": 500, "unit": "ng/mL"},
      {"measurement": "Drug concentration", "setting": "24 hr", "result": 1500, "unit": "ng/mL"}
    ]}
  ]
}
